Consider 17 compounds from US4434290A, “Pyrido (4,3-B) carbazoles substituted in the 1 position by a polyamine chain” (priority 1978, dated 1984).

One data set has as its system leukemia L1210. Briefly: Leukemia L1210 in vivo, measurement of survival time (Table XII). Details: species or system B6 D2 Fl (C 57 Bl/6×DBA/2) Fl mice; MST: unit not given here. The conditions noted are these: 10^5 cells, i.p. On the procedure:
The following pharmacological trials relate to the effects of the compounds of the invention on leukemia L1210 in vivo.
G. Proc. Nat. Acad. Sci. 1972, 69, 1042-1047 and Schepartz S., Screening 1971, Cancer Chemother. Part 3; Vol. 2, p. 3].
The properties were determined by the curative action inoculated experimental leukemia L1210. This leukemia was maintained on B6 D2 Fl (C 57 Bl/6×DBA/2) Fl mice in the proportion of 6 or 10 mice per experimental batch. The compounds to be tested were injected by the intraperitoneal route one or several days after inoculation of the cells (1 injection only). […] The death interval was determined, the first figure of the Table indicating the date of the first mouse death and the second the date of the last mouse death. The mean survival time was also measured (MST). A characteristic value is the percentage of increased life span (ILS %). This value (Cancer. Res. 1971, 31, 1883-1887) is the ratio: [formula] where S^t =survival of treated animals and
S^c =survival of control animals.

For data set [1], the system named is cells of viro-induced leukemia of Friend. In words: In vitro cytotoxic study on cells of the Friend leukemia of the mouse (Table XV). Conditions: for IC50 / IC100: Mus musculus, 24 h; for IC50: read-out: LD 50 (50% lethal dose); for IC100: read-out: LD 100 (100% lethal dose); for LD 50 HUM / LD 50 product: ratio to reference HUM. The class given is cell-based. On the procedure: "In vitro" cytotoxic study of the compounds of the invention on the cells of viro-induced leukemia of Friend in the mouse [J. Exp. Med. 1957, 105, p. 307-318].
The cells were grown in suspension in the RPMI 1640 medium [catalogue of GIBCO Bio-Cult-Ltd, Washington Road Sandyford Industrial Estate Paisley PA3 4EP Renfrewshire Scotland] supplement with 20% of embryonary calf serum, with penicillin and with streptopycin. The duplication time of the culture was about 11 hours. The growth factor is equal to 1 or very close to 1 (all the cells multiplying).
The cultures were seeded at times t=0 at the concentration of 2×10^5 cells per ml in Falcon dishes containing 4 ml of medium. 24 hours later, the product to be tested (in solution, in acetic water) was added, at the moment when the cells were in the exponential growth phase. 24 hours after the addition of the product, the cells were counted and the percentage of living cells determined by an exclusion test with trypan blue.

In another data set the test system is C13/8 cells. Briefly: In vitro cytotoxic study on hamster cells, complete inhibition of growth, C13/8 (Table XVI). The class given is cell-based. Conditions: for IC (100 (complete growth inhibition, minimal)): Mesocricetus auratus, read-out: Minimal dose leading to a complete inhibition of the growth. The text has this: (§1) Cytotoxic "in vitro" study on hamster cells on leukemia L1210 cells of the serie.
In particular, the line BHK 21 of hamster cells and a clone derived from this line were used, converted by the virus of the hamster sarcoma (clone HS5).
After detachment by trypsin, the cells were placed under culture in plastic Petri dishes of 35 mm diameter at the concentration of 2.10^5 cells/dish, in a "Eagle" culture medium supplemented with "Bactotryptophosphate Broth Difco" and with 10% of calf serum [M. STOKER and I. MAC-PHERSON Virology, 14, 1961, 359].
(§2) After 5 hours, the cells were attached to a plastic support and the products to be tested whose solutions had been formed in water or in DMSO (dimethylsulphoxide) if the product was little soluble in water, was added. In the latter case a control was carried out with the same final concentration of DMSO in the culture medium.
(§3) The state of the cells was examined 24, 48 and 72 hours later.

The test system of a further data set is HS5 cells. Briefly: In vitro cytotoxic study on hamster cells converted by the virus of the hamster sarcoma, clone HS5 (Table XVI). The conditions noted are these: for IC (100 (complete growth inhibition, minimal)): Mesocricetus auratus, read-out: Minimal dose leading to a complete inhibition of the growth. The class given is cell-based. On the procedure: Cytotoxic "in vitro" study on hamster cells on leukemia L1210 cells of the serie. In particular, the line BHK 21 of hamster cells and a clone derived from this line were used, converted by the virus of the hamster sarcoma (clone HS5). […] STOKER and […] Virology, 14, 1961, 359]. After 5 hours, the cells were attached to a plastic support and the products to be tested whose solutions had been formed in water or in DMSO (dimethylsulphoxide) if the product was little soluble in water, was added. In the latter case a control was carried out with the same final concentration of DMSO in the culture medium. The state of the cells was examined 24, 48 and 72 hours later.

The test system of a further data set is L1210 cells. Briefly: In vitro cytotoxic study on leukemia L1210 cells, complete inhibition of growth (Table XVI). The class given is cell-based. The conditions noted are these: for IC (100 (complete growth inhibition, minimal)): Mus musculus, read-out: Minimal dose leading to a complete inhibition of the growth. The protocol: as §1, §2, §3
In the case of the L1210 cells, the tests were carried out in a medium gelled with agarose, the L1210 cells growing in suspension.

For a further data set, the system named is cell cultures. Briefly: Cytotoxicity in pharmacological tests (general statements). The class given is cell-based.
Where [2] appears, read: L1210, medium gelled with agarose.

With `CCN(CC)CCCNc1nccc2c(C)c3[nH]c4ccc(OC)cc4c3cc12` [Compound 18], in the data set on leukemia L1210 (20 mg/kg, day +3), the “Death interval (mice)” value is on record as 13-19, the ILS % is on record as 38.8% and the MST is 16.1. Moreover, in data set [1], the IC50 was found to be 500 nM, the IC100 was determined as 1.5 µM and the “LD 50 HUM / LD 50 product” value was determined as 0.6. Also, the IC (100 (complete growth inhibition, minimal)) in the data set on C13/8 cells amounted to 5 µM. Moreover, the IC (100 (complete growth inhibition, minimal)) with HS5 cells came to 5 µM.
Regarding `Cc1c2cc[n+](C)cc2c(C)c2c1[nH]c1ccc(O)cc12` [HUM, 2-methyl-9-hydroxy ellipticinium acetate, reference compound], in data set [1], the IC50 amounted to 300 nM and the IC100 amounted to 0.8 µM.
As for `CCN(CC)CCCNc1nccc2c(C)c3[nH]c4ccc(OCc5ccccc5)cc4c3cc12` [Compound 24], in data set [1], the IC50 turned out to be 3000 nM, the IC100 was 10 µM and the “LD 50 HUM / LD 50 product” value amounted to 0.1. Moreover, the IC (100 (complete growth inhibition, minimal)) in the data set on L1210 cells (setting [2]) turned out to be 0.4 µM. The “activity compared with the reference BD40” value in the data set with L1210 cells (summary of Table XVI) is on record as “almost as active as the reference dipyrido-indole (BD40)”.
For `Cc1c2ccnc(NCCCN)c2cc2c1[nH]c1ccc(OCc3ccccc3)cc12` [Compound 23], in data set [1], the IC50 stood at 300 nM, the IC100 was 0.9 µM and the “LD 50 HUM / LD 50 product” value was 1.
Turning to `CCN(CC)CCCC(C)Nc1nccc2c(C)c3[nH]c4ccc(OC)cc4c3cc12` (centres unmarked) [Compound 19], in the data set with leukemia L1210 (10 mg/kg, day +4), the “Death interval (mice)” value is given as 11-16, the ILS % is 25% and the MST amounted to 13. In the data set with leukemia L1210 (20 mg/kg, day +4), the “Death interval (mice)” value is on record as 11-16, the ILS % came to 19.2% and the MST turned out to be 12.4. Also, in data set [1], the IC50 was found to be 1300 nM, the IC100 is 3 µM and the “LD 50 HUM / LD 50 product” value was determined as 0.2.
As for `COc1ccc2[nH]c3c(C)c4ccnc(N5CCCCC5)c4cc3c2c1` [Compound 21], in data set [1], the IC50 was 35000 nM, the IC100 was 100 µM and the “LD 50 HUM / LD 50 product” value is on record as 1.1. The IC (100 (complete growth inhibition, minimal)) in the data set on C13/8 cells was greater than 5 µM. Also, the IC (100 (complete growth inhibition, minimal)) in the data set with HS5 cells is greater than 5 µM. The “cytotoxic activity” value with cell cultures was “not cytotoxic”.
On to `COc1ccc2[nH]c3c(C)c4ccnc(NCCN(C)C)c4cc3c2c1` [Compound 16], for which, in data set [1], the IC50 came out at 800 nM, the IC100 is 3 µM and the “LD 50 HUM / LD 50 product” value is reported as 0.4. In addition, the IC (100 (complete growth inhibition, minimal)) in the data set on C13/8 cells was determined as 1 µM. The IC (100 (complete growth inhibition, minimal)) in the data set on HS5 cells came to 2 µM.
For `COc1ccc2[nH]c3c(C)c4ccnc(NCCCCCN)c4cc3c2c1` [Compound 14], in data set [1], the IC50 came to 500 nM, the IC100 was 1.5 µM and the “LD 50 HUM / LD 50 product” value is listed as 0.6. Besides, in the data set with C13/8 cells, the IC (100 (complete growth inhibition, minimal)) came to 2 µM. In the data set with HS5 cells, the IC (100 (complete growth inhibition, minimal)) worked out at 2 µM.
As to `CCN(CC)CCCNc1nccc2c(C)c3[nH]c4ccc(O)cc4c3cc12` [Compound 29], in the data set on leukemia L1210 (10 mg/kg, day +4), the “Death interval (mice)” value was 15-17, the ILS % stood at 55.8% and the MST was 16.2. Besides, in the data set on leukemia L1210 (20 mg/kg, day +4), the “Death interval (mice)” value was 10-15, the ILS % was 19.2% and the MST came to 12.4. For the same compound, in data set [1], the “activity compared with HUM / known derivatives” value was “more active than the derivatives already known”, the IC50 was determined as 17 nM, the IC100 amounted to 0.04 µM and the “LD 50 HUM / LD 50 product” value is listed as 18.
Consider `COc1ccc2[nH]c3c(C)c4ccnc(NCCN)c4cc3c2c1` [Compound 11], for which, in data set [1], the “activity compared with HUM / known derivatives” value was “more active than the derivatives already known”, the IC50 came out at 100 nM, the IC100 was 0.25 µM and the “LD 50 HUM / LD 50 product” value was 3. Moreover, the IC (100 (complete growth inhibition, minimal)) in the data set with C13/8 cells was determined as 1 µM. In addition, the IC (100 (complete growth inhibition, minimal)) in the data set on HS5 cells was 1 µM.
Turning to `COc1ccc2[nH]c3c(C)c4ccnc(NCCCN)c4c(C)c3c2c1` [Compound 25], in the data set with leukemia L1210 (10 mg/kg, day +4), the “Death interval (mice)” value was 12-13, the ILS % stood at 21.1% and the MST was found to be 12.6. For the same compound, in the data set on leukemia L1210 (20 mg/kg, day +4), the “Death interval (mice)” value is reported as 8-12 and the MST stood at 9.6. In data set [1], the “activity compared with HUM / known derivatives” value is given as “more active than the derivatives already known”, the IC50 worked out at 120 nM, the IC100 came to 0.3 µM and the “LD 50 HUM / LD 50 product” value was found to be 3. The IC (100 (complete growth inhibition, minimal)) with L1210 cells (setting [2]) stood at 0.9 µM.
As for `COc1ccc2[nH]c3c(C)c4ccnc(NCCCCCCN)c4cc3c2c1` [Compound 15], in data set [1], the IC50 was found to be 800 nM, the IC100 worked out at 2 µM and the “LD 50 HUM / LD 50 product” value is recorded as 0.4. The IC (100 (complete growth inhibition, minimal)) in the data set on C13/8 cells is 2 µM. Besides, the IC (100 (complete growth inhibition, minimal)) in the data set on HS5 cells turned out to be 2 µM.
On to `COc1ccc2[nH]c3c(C)c4ccnc(NCCCN)c4cc3c2c1` [Compound 12], for which, in data set [1], the IC50 is 250 nM, the IC100 stood at 0.7 µM and the “LD 50 HUM / LD 50 product” value is 1.5. Moreover, the IC (100 (complete growth inhibition, minimal)) in the data set on C13/8 cells is 2 µM. For the same compound, the IC (100 (complete growth inhibition, minimal)) in the data set on HS5 cells came out at 2 µM.
`COc1ccc2[nH]c3c(C)c4ccnc(NCCCN(C)C)c4c(C)c3c2c1` [Compound 26]: in the data set with leukemia L1210 (10 mg/kg, day +4), the “Death interval (mice)” value was 12-16, the ILS % is on record as 38.5% and the MST is recorded as 14.4. Also, in the data set on leukemia L1210 (20 mg/kg, day +4), the “Death interval (mice)” value is listed as 16-19, the ILS % is on record as 67.3% and the MST is on record as 17.4. Further, in data set [1], the IC50 came out at 400 nM, the IC100 amounted to 1 µM and the “LD 50 HUM / LD 50 product” value is 0.75.
Turning to `CCN(CC)CCCNc1nccc2c(C)c3[nH]c4ccncc4c3cc12` [BD 40, reference compound], the “Minimal dose leading to a complete inhibition of the growth” value turned out to be 0.25 μ M in the data set on C13/8 cells, 0.25 μ M in the data set on HS5 cells and 0.2 μ M in the data set with L1210 cells (setting [2]).
As to `COc1ccc2[nH]c3c(C)c4ccnc(NCCCN(C)C)c4cc3c2c1` [Compound 17], in data set [1], the IC50 turned out to be 1500 nM, the IC100 was 3 µM and the “LD 50 HUM / LD 50 product” value was 0.2. For the same compound, in the data set on C13/8 cells, the IC (100 (complete growth inhibition, minimal)) was 1 µM. Besides, the IC (100 (complete growth inhibition, minimal)) with HS5 cells came to 2 µM.
As to `COc1ccc2[nH]c3c(C)c4ccnc(NCCCCN)c4cc3c2c1` [Compound 13], in data set [1], the IC50 is 7000 nM, the IC100 was found to be 15 µM and the “LD 50 HUM / LD 50 product” value was determined as 0.04. Moreover, the IC (100 (complete growth inhibition, minimal)) in the data set on C13/8 cells came to 2 µM. Also, the IC (100 (complete growth inhibition, minimal)) with HS5 cells is 2 µM.
